# Assay results from patent US8470867B2, “Sigma receptor inhibitors” (Laboratorios Del Dr. Esteve, S.A., priority 2004, dated 2013).
# Structures can show the parent of a compound that is named as a salt.
# System: not given
# Assay: not given
# Conditions: not given
row,melting point,SMILES
1,162 to 166 °C,"Clc1ccc(-n2ccc(OCCN3CCOCC3)n2)cc1Cl (as salt: hydrochloride) [Example 37, 4-{2-[1-(3,4-dichlorophenyl)-1H-pyrazol-3-yloxy]ethyl}morpholine]"
2,188 to 192 °C,CC(=O)c1c(OCCN2CCOCC2)nn(-c2ccc(Cl)c(Cl)c2)c1C.O=C(O)C(=O)O
3,156 to 161 °C,Cl.Clc1ccc(-n2ccc(OCCCCN3CCCCC3)n2)cc1Cl
4,111 to 112 °C,"Cc1cc(OCCn2ccnc2)nn1-c1ccc(Cl)c(Cl)c1 [Example 6, 1-{2-[1-(3,4-dichlorophenyl)-5-methyl-1H-pyrazol-3-yloxy]ethyl}-1H-imidazole]"
5,156 to 159 °C,"Clc1ccc(-n2ccc(OCCCN3CCCC3)n2)cc1Cl (as salt: hydrochloride) [Example 41, 1-(3,4-dichlorophenyl)-3-[3-(pyrrolidin-1-yl)propoxy]-1H-pyrazole]"
6,159 to 162 °C,CC(=O)c1c(OCCN2CCCC2)nn(-c2ccc(Cl)c(Cl)c2)c1C.O=C(O)C(=O)O
7,169 to 173 °C,COc1ccc(-n2nc(OCCN3CCOCC3)cc2C)cc1.Cl
8,149 to 154 °C,C[C@@H]1CN(CCCCOc2ccn(-c3ccc(Cl)c(Cl)c3)n2)C[C@H](C)O1.Cl
9,165 to 169 °C,Cl.Clc1ccc(-n2ccc(OCCCCN3CCOCC3)n2)cc1Cl
10,130 to 135 °C,CCN(CC)CCCCOc1ccn(-c2ccc(Cl)c(Cl)c2)n1.O=C(O)C(=O)O
11,134 to 136 °C,CCN(CC)CCOc1nn(-c2ccc(Cl)c(Cl)c2)c(C)c1C.Cl
12,172 to 176 °C,"Clc1ccc(-n2ccc(OCCN3CCCC3)n2)cc1Cl (as salt: hydrochloride) [Example 39, 1-(3,4-dichlorophenyl)-3-[2-(pyrrolidin-1-yl)ethoxy]-1H-pyrazole]"
13,175 to 177 °C,Clc1ccc(-n2ccc(OCCCCN3CCSCC3)n2)cc1Cl.O=C(O)C(=O)O
14,97 to 100 °C,COCCN(C)CCCCOc1ccn(-c2ccc(Cl)c(Cl)c2)n1.O=C(O)C(=O)O
15,64 to 67 °C,"Cc1c(OCCN2CCCCC2)nn(-c2ccc(Cl)c(Cl)c2)c1C [Example 48, 1-(2-(1-(3,4-Dichlorophenyl)-4,5-dimethyl-1H-pyrazol-3-yloxy)ethyl)piperidine]"
16,158 to 161 °C,CC(=O)c1c(OCCN2CCCCC2)nn(-c2ccc(Cl)c(Cl)c2)c1C.O=C(O)C(=O)O
17,146 to 148 °C,Cc1c(OCCN2CCCC2)nn(-c2ccc(Cl)c(Cl)c2)c1C.Cl
18,155 to 157 °C,Cc1c(OCCCN2CCCC2)nn(-c2ccc(Cl)c(Cl)c2)c1C.Cl
19,181 to 186 °C,Cl.Clc1ccc(-n2ccc(OCCCCN3CCCC3)n2)cc1Cl
20,172 to 177 °C,"Clc1ccc(-n2ccc(OCCN3CCCCC3)n2)cc1Cl (as salt: hydrochloride) [Example 40, 1-{2-[1-(3,4-dichlorophenyl)-1H-pyrazol-3-yloxy]ethyl}piperidine]"
21,147 to 155 °C,Cl.Clc1ccc(-n2nc(OCCn3ccnc3)cc2-c2ccccc2)cc1Cl
22,147 to 149 °C,CCN(CC)CCOc1nn(-c2ccc(Cl)c(Cl)c2)c(C)c1C(C)=O.O=C(O)C(=O)O

# Target: T1, σ1-receptor (Cavia porcellus, UniProt Q60492)
# T1 construct: guinea pig brains were homogenized; from tissue; host or cells: guinea pig brain membranes
# Assay: Sigma-1 receptor binding, [3H](+)-pentazocine, brain membranes
# Set-up: species or system guinea pig
# Conditions: not given
# Experimental: Brain membrane preparation and binding assays for the σ1-receptor were performed as described (DeHaven-Hudkins et al., 1992) with some modifications. In brief, guinea pig brains were homogenized in 10 vols. (w/v) of Tris-HCl 50 mM 0.32 M sucrose, pH 7.4, with a Kinematica Polytron PT 3000 at 15000 r.p.m. for 30 s. The homogenate was centrifuged at 1000 g for […] at 4° C. and the supernatants collected and centrifuged again at 48000 g for 15 min at 4° C. The pellet was resuspended in 10 volumes of Tris-HCl buffer (50 mM, pH 7.4), incubated at 37° C. for 30 min, and centrifuged at 48000 g for 20 min at 4° C. Following this, the pellet was resuspended in fresh Tris-HCl buffer (50 mM, pH 7.4) and stored on ice until use.
# Each assay tube contained 10 μL of [^3H](+)-pentazocine (final concentration of 0.5 nM), 900 μL of the tissue suspension to a final assay volume of 1 mL and a final tissue concentration of approximately 30 mg tissue net weight/mL. […] All tubes were incubated at 37° C. for 150 min before termination of the reaction by rapid filtration over Schleicher & Schuell GF 3362 glass fibre filters [previously soaked in a solution of 0.5% polyethylenimine for at least 1 h]. Filters were then washed with four times with 4 mL of cold Tris-HCl buffer (50 mM, pH 7.4). Following addition of scintillation cocktail, the samples were allowed to equilibrate overnight. The amount of bound radioactivity was determined by liquid scintillation spectrometry using a Wallac Winspectral 1414 liquid scintillation counter. Protein concentrations were determined by the method of Lowry et al. (1951).
# T1 sequence (Q60492 whole entry): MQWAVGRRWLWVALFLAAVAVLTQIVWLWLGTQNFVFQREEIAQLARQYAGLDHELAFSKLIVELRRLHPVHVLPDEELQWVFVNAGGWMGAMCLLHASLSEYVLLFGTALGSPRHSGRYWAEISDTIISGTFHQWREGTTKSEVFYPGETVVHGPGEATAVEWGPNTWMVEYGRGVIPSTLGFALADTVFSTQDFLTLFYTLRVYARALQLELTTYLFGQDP
row,Ki,SMILES
1,8.6 nM,"CC(C)c1cc(OCCN2CCCCC2)nn1-c1ccc(Cl)c(Cl)c1 [Example 35, 1-{2-[1-(3,4-Dichlorophenyl)-5-isopropyl-4H-pyrazol-3-yloxy]ethyl}piperidine]"
2,4.1 nM,"CCN(CC)CCCCOc1cc(C)n(-c2ccc(Cl)c(Cl)c2)n1 [Example 27, 4-[1-(3,4-Dichlorophenyl)-5-methyl-1H-pyrazol-3-yloxy]-N,N-diethylbutan-1-amine]"

row,SMILES,Ki
1,"Cc1cc(OCCCCN2CCCC2)nn1-c1ccc(Cl)c(Cl)c1 [Example 23, 1-(3,4-Dichlorophenyl)-5-methyl-3-[4-(pyrrolidin-1-yl)butoxy]-1H-pyrazole]",4.4 nM

# Same assay, conditions: 10^−7 M
inhibition at 0.1 µM,% Binding σ1,SMILES
95.1%,–,"CCN(CC)CCOc1cc(C)n(-c2ccc(Cl)c(Cl)c2)n1 [Example 2, 2-[1-(3,4-Dichlorophenyl)-5-methyl-1H-pyrazol-3-yloxy]-N,N-diethylethanamine hydrochloride]"
99.5%,–,"CCOC(=O)N1CCN(CCOc2cc(C)n(-c3ccc(Cl)c(Cl)c3)n2)CC1 [Example 9, Ethyl 4-{2-[1-(3,4-dichlorophenyl)-5-methyl-1H-pyrazol-3-yloxy]ethyl}piperazine carboxylate]"
69.2%,–,"CCN(CC)CCOc1cc(C)n(-c2ccc3ccccc3c2)n1 [Example 62, N,N-Diethyl-2-[5-methyl-1-(naphthalen-2-yl)-1H-pyrazol-3-yloxy]ethanamine]"
110%,–,"Clc1ccc(-n2ccc(OCCN3CCCCC3)n2)cc1Cl [Example 40, 1-{2-[1-(3,4-dichlorophenyl)-1H-pyrazol-3-yloxy]ethyl}piperidine]"
80.1%,–,"Clc1ccc(-n2nc(OCCN3CCCCC3)cc2-c2ccccc2)cc1Cl [Example 19, 1-{2-[1-(3,4-Dichlorophenyl)-5-phenyl-1H-pyrazol-3-yloxy]ethyl}piperidine]"
48.9%,–,"COc1ccc(-n2nc(OCCN3CCCCC3)cc2C)cc1 [Example 14, 1-[2-(1-(4-Methoxyphenyl)-5-methyl-1H-pyrazol-3-yloxy)ethyl]piperidine]"
72.7%,–,"CCN(CC)CCOc1cc(C(C)C)n(-c2ccc(Cl)c(Cl)c2)n1 [Example 32, 2-[1-(3,4-Dichlorophenyl)-5-isopropyl-1H-pyrazol-3-yloxy]-N,N-diethylethanamine]"
58.6%,–,"Clc1ccc(-n2nc(OCCCN3CCCC3)cc2-c2ccccc2)cc1Cl [Example 18, 1-(3,4-Dichlorophenyl)-5-phenyl-3-[3-(pyrrolidin-1-yl)propoxy]-1H-pyrazole]"
94.5%,–,"Cc1cc(OCCN2CCN(C)CC2)nn1-c1ccc(Cl)c(Cl)c1 [Example 8, 1-{2-[1-(3,4-Dichlorophenyl)-5-methyl-1H-pyrazol-3-yloxy]ethyl}-4-methylpiperazine]"
102%,–,"CC(C)c1cc(OCCN2CCCCC2)nn1-c1ccc(Cl)c(Cl)c1 [Example 35, 1-{2-[1-(3,4-Dichlorophenyl)-5-isopropyl-4H-pyrazol-3-yloxy]ethyl}piperidine]"
50.9%,–,"COc1ccc(-n2nc(OCCCN3CCCC3)cc2C)cc1 [Example 13, 1-(4-Methoxyphenyl)-5-methyl-3-[3-(pyrrolidin-1-yl)propoxy]-1H-pyrazole]"
99.2%,–,"CCN(CC)CCCCOc1cc(C)n(-c2ccc(Cl)c(Cl)c2)n1 [Example 27, 4-[1-(3,4-Dichlorophenyl)-5-methyl-1H-pyrazol-3-yloxy]-N,N-diethylbutan-1-amine]"
110%,–,"Clc1ccc(-n2ccc(OCCN3CCCC3)n2)cc1Cl [Example 39, 1-(3,4-dichlorophenyl)-3-[2-(pyrrolidin-1-yl)ethoxy]-1H-pyrazole]"
–,93.6%,"Cc1cc(OCCN2CCOCC2)nn1-c1ccc2ccccc2c1 [Example 61, 4-{2-[5-Methyl-1-(naphthalen-2-yl)-1H-pyrazol-3-yloxy]ethyl}morpholine]"
108%,–,"CCN(CC)CCOc1ccn(-c2ccc(Cl)c(Cl)c2)n1 [Example 38, 2-[1-(3,4-dichlorophenyl)-1H-pyrazol-3-yloxy]N,N-diethylethanamine]"
83%,–,"Cc1cc(OCCCCN2CCc3ccccc3C2)nn1-c1ccc(Cl)c(Cl)c1 [Example 30, 2-{4-[1-(3,4-dichlorophenyl)-5-methyl-1H-pyrazol-3-yloxy]butyl}-1,2,3,4-tetrahydroisoquinoline]"
108%,–,"Clc1ccc(-n2ccc(OCCN3CCOCC3)n2)cc1Cl [Example 37, 4-{2-[1-(3,4-dichlorophenyl)-1H-pyrazol-3-yloxy]ethyl}morpholine]"

SMILES,inhibition at 0.1 µM,% Binding σ1
"Cc1cc(OCCCCN2CCCC2)nn1-c1ccc(Cl)c(Cl)c1 [Example 23, 1-(3,4-Dichlorophenyl)-5-methyl-3-[4-(pyrrolidin-1-yl)butoxy]-1H-pyrazole]",96.4%,–
